Earlier results in patent US8148390B2, “Monocyclic anilide spirolactam CGRP receptor antagonists” (Merck, Sharp & Dohme, Corp., priority 2007, dated 2012).
Like-named read-outs stand apart in the source and are kept apart here. Ends that are not written are not given here.

Experiments:
[1] = system: acute attacks of migraine; settings: clinical trials (Olesen et al. 2004)
[2] = system: headache induced by CGRP infusion; settings: control group (Petersen et al. 2005)
facial blood flow [3] = settings: marmoset, electrical stimulation of the trigeminal ganglion (Doods et al. 2000)
middle meningeal artery = settings: rats, electrical stimulation of the dura mater, prior administration (Williamson et al. 1997)
facial blood flow [4] = settings: rat, trigeminal ganglion stimulation (Escott et al. 1995)

Question: Which results are given for NCCCC[C@H](NC(=O)[C@@H](Cc1cc(Br)c(O)c(Br)c1)NC(=O)N1CCC(N2Cc3ccccc3NC2=O)CC1)C(=O)N1CCN(c2ccncc2)CC1 [BIBN4096BS]?
Answer: efficacy in treating acute attacks of migraine [1]: effective in treating acute attacks of migraine; prevention of headache induced by CGRP infusion [2]: able to prevent headache induced by CGRP infusion; effect on increase of facial blood flow (facial blood flow [3]): could be blocked

Question: Which results are given for “CGRP(8-37): a peptide CGRP antagonist; fragment of CGRP that lacks seven N-terminal amino acid residues (VTHRLAGLLSRSGGVVKNNFVPTNVGSKAF; ends and bridges not checked; UniProt P06881 90-119, looked up, fragment)”?
Answer: effect on increase of middle meningeal artery diameter (middle meningeal artery): blocked; effect on increase of facial blood flow (facial blood flow [4]): inhibited
